Literature values in US20030168224A1, “Novel phosphorous-nitrogen compounds used as fireproofing agents in theroplastic molding materials and the production thereof” (priority 2000, published 2003).

How the values were obtained:
[1] = prior-art product
[2] = prior-art product; remark: listed apart in the source

In the case of `N.O=C1NC(=O)NP(=S)(S)N1` [ammonium 4,6-dioxo-2-thiooxohexahydro-1,3,5,2-λ^5-triazaphosphorinane-2-thiolate], the decomposition temperature [1] is given as 230 °C and the “solubility in hot water” value [2] is given as “highly soluble”.
